The values that follow come from patent US5474921A, “Expression and purification of phosphoinositide-specific phospholipase C-γ” (Merck & Co., Inc., priority 1993, dated 1995).

The target of one data set is T1, PLCγ1 (Rattus norvegicus, UniProt P10686).
T1 construct: made in house; host or cells: E. coli BL21 (DE3)
T1 sequence (P10686 with tags, fused parts or gaps limits assumed): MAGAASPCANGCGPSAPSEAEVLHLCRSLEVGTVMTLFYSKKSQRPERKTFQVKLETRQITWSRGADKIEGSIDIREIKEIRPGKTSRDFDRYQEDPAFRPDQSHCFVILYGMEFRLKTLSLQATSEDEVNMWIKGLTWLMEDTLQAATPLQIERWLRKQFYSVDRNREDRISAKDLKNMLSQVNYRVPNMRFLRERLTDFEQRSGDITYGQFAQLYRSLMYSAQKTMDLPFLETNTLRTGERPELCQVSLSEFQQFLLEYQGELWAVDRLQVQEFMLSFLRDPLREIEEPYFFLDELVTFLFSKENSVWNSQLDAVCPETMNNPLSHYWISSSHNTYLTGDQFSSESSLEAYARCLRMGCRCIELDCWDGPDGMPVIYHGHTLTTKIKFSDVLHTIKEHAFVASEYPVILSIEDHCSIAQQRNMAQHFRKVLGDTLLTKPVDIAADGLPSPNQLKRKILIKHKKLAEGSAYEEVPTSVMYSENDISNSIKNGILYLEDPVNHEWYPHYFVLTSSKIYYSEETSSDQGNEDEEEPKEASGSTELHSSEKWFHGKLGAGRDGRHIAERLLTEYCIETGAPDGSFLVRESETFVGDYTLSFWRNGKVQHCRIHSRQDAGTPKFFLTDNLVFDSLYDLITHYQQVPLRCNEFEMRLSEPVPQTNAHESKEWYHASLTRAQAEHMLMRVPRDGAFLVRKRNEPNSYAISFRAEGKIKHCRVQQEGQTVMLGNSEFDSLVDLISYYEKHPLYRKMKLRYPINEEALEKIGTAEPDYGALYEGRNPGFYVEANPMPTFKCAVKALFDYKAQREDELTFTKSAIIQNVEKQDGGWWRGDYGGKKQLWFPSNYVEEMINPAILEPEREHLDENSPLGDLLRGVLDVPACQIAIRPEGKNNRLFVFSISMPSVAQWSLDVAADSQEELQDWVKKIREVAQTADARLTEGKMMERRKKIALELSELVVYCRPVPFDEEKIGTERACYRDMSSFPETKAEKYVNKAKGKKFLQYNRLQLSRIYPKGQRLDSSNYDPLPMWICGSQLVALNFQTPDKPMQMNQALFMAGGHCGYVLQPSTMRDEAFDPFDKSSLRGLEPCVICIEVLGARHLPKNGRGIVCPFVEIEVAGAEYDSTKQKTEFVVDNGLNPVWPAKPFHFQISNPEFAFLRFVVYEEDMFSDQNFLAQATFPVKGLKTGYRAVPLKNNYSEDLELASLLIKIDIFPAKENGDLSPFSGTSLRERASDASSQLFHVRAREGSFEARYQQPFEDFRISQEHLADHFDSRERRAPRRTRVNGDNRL
As to the kind of experiment: Assay of inhibitory activity of compounds against PLCγ1 (hydrolysis of [3H]-phosphatidyl inositol by purified bacterially expressed PLCγ1). It counts as biochemical. The note with it: 30° C., pH 7.5, 0.1% deoxycholate, compound included prior to addition of enzyme. The source says:
Subcloning of the PLCγ1 Coding Sequence. Rat brain cDNA is synthesized using rat brain poly(A)RNA as template by literature protocol (Sambrook, J. et al., Molecular Cloning: A Laboratory Manual, Cold Spring Harbor Laboratory Press, Cold Spring Harbor, N.Y.). From the published cDNA sequence of rat brain PLCγ1 (Suh, P. -G., Ryu, S. H., Moon, K. H., Suh, H. W., & Rhee, S. G. (1988) Proc. Natl. Acad. Sci. USA 85, 5419-5423), PCR primers, one which contains a BamHI restriction site upstream of the sequence complementary to the 5' end of the PLCγ gene (primer 01 ), and the other one which contains a HindIII site downstream of the 3' end of the PLCγ gene (primer 04), were synthesized. Carrying out the PCR using these primers (01 and 04) with the above mentioned rat brain eDNA as template, a DNA fragment with the entire rat brain PLCγ1 coding sequence, flanked by a 5' BamHI site and a 3' HindIII site, is generated. This BarnHI-HindIII fragment containing the coding sequence of PLCγ1 was subcloned into pBSII(S/K)+, generating pPLCl. The rest of the manipulations were accomplished using PCR to generate the appropriate DNA fragment. The 5' end of the PLCγ1 gene was altered to include a new BarnHi site and a sequence that would eventually translationally couple the expression of PLCγ to the .phi.10 gene of the pT5T vector as described by Eisenberg, S. P., Evans, R. J., Arend, W. P., Verderber, E., Brewer, M. T., Hannum, C. H., & Thompson, R. C. (1990) Nature(London) 343,341-346.
Using the isolated mutant fragments from each of these PCRs together as template, the final PCR was carried out using primers 03-06 which yielded, after restriction enzyme digestion, a SphI and HindIll fragment which was used to replace the analogous fragment in pPLC2. The resulting plasmid, pPLC3, contained the coding sequence of the PLCγ1 gene on a BarnHI-HindlII fragment with both the sequence encoding the Glu-Glu-Phe tag at the 3' end as well as the changed AGG codons. […] (SEQ.ID.NO.: 3) Finally, the BarnHI-HindIII fragment from pPLC3 was transferred into the BamHI-HindIII site of pTST, generating pTST-PLC4. This construct was used to produce PLCγ1 (containing the Glu-Glu-Phe epitope tag at the C-terminus) translationally coupled to the expression of .phi.10 protein in the pT5T vector.
Expression and Purification of PLCγ1. To express PLCγ1 the plasmid pT5T-PLC4 was transformed into E. coli BL21 (DE3). The transformed cells were grown in LB media containing ampicillin (100 μg/ml) and tetracycline (12.5 μg/ml) at 20° C. until the optical density of the cultures at 550 nm was equal to 0.8. This transformed bacterial cell has been deposited with the ATCC and has been assigned the number ATCC 69421. Expression of PLCγ1 was then induced by addition of isopropyl β-D-thiogalactopyranoside (0.5 mM final concentration) to the cultures. After growing for another 6 hours the cells were harvested and PLCγ1 was purified as described below. PLCγ1 was isolated from E. coli by resuspending a cell pellet in standard buffer, 50 mM Tris-C1 pH 8.0, 2 mM MgCl2, 10 mM CaCl2, 1 mM EGTA, 5 mM DTT, 5 mM streptomycin sulfate, 1 mM PMSF, 2 μg/ml leupeptin, 2 μg/ml antipain, 10 μg/ml aprotinin (approximately 5 g wet packed cells/10 ml buffer). The resuspended cells were broken by sonication and the cell debris pelleted by centrifugation at 30,000×g at 4° C. for 30 minutes. The soluble fraction was applied at a flow rate of approximately 0.5 ml/min. to a 2 ml column of the monoclonal antibody YL 1/2(4 mg antibody/ml resin) coupled to cyanogen bromide activated Sepharose. The YL1/2 Sepharose column, which binds the epitope tag Glu-Glu-Phe had previously been equilibrated with standard buffer. After loading the protein onto the column, the column was washed with standard buffer (100 mls) PLCγ1 was eluted with 3×5ml 5 mM Asp-Phe dipeptide (Sigma) in standard buffer. The column was regenerated by washing with phosphate buffered saline (PBS)+2 M NaCl and then stored in PBS +0.02% NaN3 (wt./vol). […]

The test system of the next data set is macrophages. The note with it: background statement; cited from earlier work.
The next data set deals with platelets. The note with it: background statement; cited from earlier work.
The subject of another data set is phospholipase C. Particulars: background statement; cited from earlier work.
Data set [1] can be described thus: Assay of purified PLCγ1 activity (hydrolysis of [3H]-phosphatidyl inositol). Format: biochemical. Particulars: 30° C., 50 mM HEPES pH 7.5; bacterially expressed vs naturally derived enzyme in the same assay. The source says: Reactions were never allowed to proceed to more than 10% completion based on the limiting substrate.

For the molecule `O=P(O)(O)C(O)c1cccc(Oc2ccccc2Cl)c1` (stereo not drawn) [drawing 1: R3=Cl, R4=H, R5=H], on PLCγ1 (Table 1), half-maximal inhibition (IC50) was put at 17 µM. On the same count and under the same terms, then `O=P(O)(O)C(O)c1cccc(Oc2ccc(Cl)c(Cl)c2)c1` (stereo not drawn) [drawing 1: R3=H, R4=Cl, R5=Cl], with 56 µM.

As for `O=P(O)(O)C(O)c1cccc(Oc2cccc(Cl)c2)c1` (stereo not drawn) [drawing 1: R3=H, R4=Cl, R5=H], the IC50 at PLCγ1 (Table 1) is 10 µM. Same read-out and setting: for `Cc1ccc(Oc2cccc(C(O)P(=O)(O)O)c2)cc1` (stereo not drawn) [drawing 1: R3=H, R4=H, R5=CH3] the value was 13 µM; for `O=P(O)(O)C(O)c1cccc(Oc2ccc(Cl)cc2)c1` (stereo not drawn) [drawing 1: R3=H, R4=H, R5=Cl], 36 µM; for `O=P(O)(O)C(O)c1cccc(Oc2ccccc2)c1` (stereo not drawn) [drawing 1: R3=H, R4=H, R5=H], 190 µM. Consider `COc1ccc(Oc2cccc(C(O)P(=O)(O)O)c2)cc1` (stereo not drawn) [drawing 1: R3=H, R4=H, R5=OCH3], for which the IC50 against PLCγ1 (Table 1) worked out at 7 µM.

As to `O=P(O)(O)C(O)c1cccc(Oc2ccc(O)cc2)c1` (stereo not drawn) [drawing 1: R3=H, R4=H, R5=OH], on PLCγ1 (Table 1), 3 µM corresponded to half-maximal inhibition (IC50). `CCc1cccc(Oc2ccc(C(O)P(=O)(O)O)cc2)c1` (stereo not drawn) [drawing 2: R3=H, R4=CH2CH3, R5=H]: the IC50 against PLCγ1 (Table 2) amounted to 37 µM. For `O=P(O)(O)C(O)c1ccc(Oc2cccc(Cl)c2)cc1` (stereo not drawn) [drawing 2: R3=H, R4=Cl, R5=H], the IC50 against PLCγ1 (Table 2) is 5 µM. Same read-out and setting: for `COc1cccc(Oc2ccc(C(O)P(=O)(O)O)cc2)c1` (stereo not drawn) [drawing 2: R3=H, R4=OCH3, R5=H] the value was 8 µM.

As for `c1ccc2c(c1)Nc1ccccc1S2` [phenothiazine], in the data set with macrophages, the “inhibition of stimulated release of arachidonic acid from macrophages” value is recorded as “inhibit”. Besides, the “inhibition of stimulated release of prostaglandins from platelets” value in the data set on platelets was “inhibit”. Besides, in the data set with phospholipase C, the “inhibition of phospholipase C” value was “inhibited”.

B1: bacterially expressed PLCγ1: rat brain PLCγ1 with C-terminal Glu-Glu-Phe epitope tag, expressed in E. coli BL21 (DE3) from plasmid pT5T-PLC4 (protein, UniProt P10686 2-1290, looked up)
1-phosphatidylinositol …: AGVGTPCANGCGPSAPSEAEVLHLCRSLEVGTVMTLFYSKKSQRPERKTFQVKLETRQITWSRGADKIEGSIDIREIKEIRPGKTSRDFDRYQEDPAFRPDQSHCFVILYGMEFRLKTLSLQATSEDEVNMWIKGLTWLMEDTLQAATPLQIERWLRKQFYSVDRNREDRISAKDLKNMLSQVNYRVPNMRFLRERLTDFEQRSGDITYGQFAQLYRSLMYSAQKTMDLPFLETNTLRTGERPELCQVSLSEFQQFLLEYQGELWAVDRLQVQEFMLSFLRDPLREIEEPYFFLDELVTFLFSKENSVWNSQLDAVCPETMNNPLSHYWISSSHNTYLTGDQFSSESSLEAYARCLRMGCRCIELDCWDGPDGMPVIYHGHTLTTKIKFSDVLHTIKEHAFVASEYPVILSIEDHCSIAQQRNMAQHFRKVLGDTLLTKPVDIAADGLPSPNQLKRKILIKHKKLAEGSAYEEVPTSVMYSENDISNSIKNGILYLEDPVNHEWYPHYFVLTSSKIYYSEETSSDQGNEDEEEPKEASGSTELHSSEKWFHGKLGAGRDGRHIAERLLTEYCIETGAPDGSFLVRESETFVGDYTLSFWRNGKVQHCRIHSRQDAGTPKFFLTDNLVFDSLYDLITHYQQVPLRCNEFEMRLSEPVPQTNAHESKEWYHASLTRAQAEHMLMRVPRDGAFLVRKRNEPNSYAISFRAEGKIKHCRVQQEGQTVMLGNSEFDSLVDLISYYEKHPLYRKMKLRYPINEEALEKIGTAEPDYGALYEGRNPGFYVEANPMPTFKCAVKALFDYKAQREDELTFTKSAIIQNVEKQDGGWWRGDYGGKKQLWFPSNYVEEMINPAILEPEREHLDENSPLGDLLRGVLDVPACQIAIRPEGKNNRLFVFSISMPSVAQWSLDVAADSQEELQDWVKKIREVAQTADARLTEGKMMERRKKIALELSELVVYCRPVPFDEEKIGTERACYRDMSSFPETKAEKYVNKAKGKKFLQYNRLQLSRIYPKGQRLDSSNYDPLPMWICGSQLVALNFQTPDKPMQMNQALFMAGGHCGYVLQPSTMRDEAFDPFDKSSLRGLEPCVICIEVLGARHLPKNGRGIVCPFVEIEVAGAEYDSTKQKTEFVVDNGLNPVWPAKPFHFQISNPEFAFLRFVVYEEDMFSDQNFLAQATFPVKGLKTGYRAVPLKNNYSEDLELASLLIKIDIFPAKENGDLSPFSGTSLRERASDASSQLFHVRAREGSFEARYQQPFEDFRISQEHLADHFDSRERRAPRRTRVNGDNRL
modifications: C-terminal Glu-Glu-Phe epitope tag
Consider B1, for which, in data set [1], the specific activity came out at 13.8 µmol/min/mg.
